PubChem BioAssay AID330 (DTP/NCI, 2004)
Values joined by “and” are separate entries in the source; they are usually repeats but may differ in a detail not shown here. Equal entries are not always repeated. Toxic doses and inconclusive results are not listed. Rule for the calls: active = survival T/C of 150% or more; inactive = T/C below 125% in these data.

Tested on: P388 leukemia ip, CD2F1 mice, survival T/C
Test: NCI In Vivo Anticancer Drug Screen. Data for tumor model P388 Leukemia (intraperitoneal) in CD2F1 (CDF1) mice
Conditions: endpoint: median survival time, higher = longer survival
Procedure, shortened: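 Mice carrying the transplanted tumor received test compound or vehicle. Survival was recorded in each group, and the value is the treated-group measurement divided by that of the vehicle-treated control group.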

[1] = dose: 50.0 mg/kg/injection, schedule: Q01DX009 (ip), vehicle: saline
[2] = dose: 100.0 mg/kg/injection, schedule: Q01DX009 (ip), vehicle: saline
[3] = dose: 50.0 mg/kg/injection, schedule: Q01DX005 (ip), vehicle: saline with Tween-80
[4] = dose: 100.0 mg/kg/injection, schedule: Q01DX005 (ip), vehicle: saline with Tween-80
[5] = dose: 200.0 mg/kg/injection, schedule: Q01DX005 (ip), vehicle: saline with Tween-80
[6] = dose: 100.0 mg/kg/injection, schedule: Q01DX009 (ip), vehicle: saline with Tween-80
[7] = dose: 50.0 mg/kg/injection, schedule: Q01DX009 (ip), vehicle: Klucel (hydroxypropylcellulose) (HPC)
[8] = dose: 100.0 mg/kg/injection, schedule: Q01DX009 (ip), vehicle: Klucel (hydroxypropylcellulose) (HPC)
[9] = dose: 200.0 mg/kg/injection, schedule: Q01DX009 (ip), vehicle: Klucel (hydroxypropylcellulose) (HPC)
[10] = dose: 60.0 mg/kg/injection, schedule: Q01DX005 (ip), vehicle: saline with Tween-80
[11] = dose: 100.0 mg/kg/injection, schedule: Q04DX003 (ip), vehicle: saline with Tween-80
[12] = dose: 50.0 mg/kg/injection, schedule: Q01DX009 (ip), vehicle: saline with Tween-80
[13] = dose: 200.0 mg/kg/injection, schedule: Q01DX009 (ip), vehicle: saline with Tween-80

Measured: T/C

c1ccccc1
inactive: dose: 0.12 % in 0.5 ml injection vol, schedule: Q01DX009 (ip), vehicle: water 100 % of control | dose: 0.25 % in 0.5 ml injection vol, schedule: Q01DX009 (ip), vehicle: water 102 % of control | dose: 0.5 % in 0.5 ml injection vol, schedule: Q01DX009 (ip), vehicle: water 104 % of control | dose: 1.0 % in 0.5 ml injection vol, schedule: Q01DX009 (ip), vehicle: water 100 % of control | dose: 2.0 % in 0.5 ml injection vol, schedule: Q01DX009 (ip), vehicle: water 100 % of control and 102 % of control | dose: 4.0 % in 0.5 ml injection vol, schedule: Q01DX009 (ip), vehicle: water 99 % of control | dose: 8.0 % in 0.5 ml injection vol, schedule: Q01DX009 (ip), vehicle: water 100 % of control | dose: 16.0 % in 0.5 ml injection vol, schedule: Q01DX009 (ip), vehicle: water 95 % of control

C(=Nc1cccnc1)c1ccc(C=Nc2cccnc2)cc1
inactive: [1] 108 % of control | [2] 104 % of control

CCOc1c(N=Nc2ccc(Br)cc2)c(C)nn1C(=S)S
inactive: dose: 60.0 mg/kg/injection, schedule: Q01DX005 (ip), vehicle: Klucel (hydroxypropylcellulose) (HPC) 105 % of control | dose: 120.0 mg/kg/injection, schedule: Q01DX005 (ip), vehicle: Klucel (hydroxypropylcellulose) (HPC) 109 % of control

Cc1cc2c3c(cccc3c1)C(=O)c1ccccc1-2
inactive: [3] 102 % of control | [4] 102 % of control | [5] 93 % of control

Brc1ccc(-c2cnc3nc4[nH]c5ccccc5c4nn23)cc1
inactive: dose: 12.5 mg/kg/injection, schedule: Q01DX005 (ip), vehicle: saline with Tween-80 101 % of control | dose: 25.0 mg/kg/injection, schedule: Q01DX005 (ip), vehicle: saline with Tween-80 93 % of control | [3] 89 % of control and 91 % of control

CC1=NN(C(=O)CC(=O)Nc2ccc(C(=O)O)cc2)C(=O)C1N=Nc1ccccc1C(=O)O (stereo not given)
inactive: [3] 110 % of control | [4] 111 % of control | [5] 110 % of control

FS(F)(F)(F)(F)c1cccc(NC(=S)SCc2ccc(Cl)cc2)c1
inactive: [1] 100 % of control | [2] 101 % of control and 95 % of control | dose: 200.0 mg/kg/injection, schedule: Q01DX009 (ip), vehicle: saline 107 % of control and 118 % of control

COc1cc2c(cc1O)C(=O)CCC(C(=O)O)=C2
inactive: [6] 92 % of control

Cc1[nH]c(=O)[nH]c(=O)c1/C=C/C(=O)O
inactive: dose: 25.0 mg/kg/injection, schedule: Q01DX009 (ip), vehicle: Klucel (hydroxypropylcellulose) (HPC) 100 % of control | [7] 100 % of control | [8] 102 % of control | [9] 102 % of control

CCO/C([O-])=C(\C=N\S(=O)(=O)c1ccc(C)cc1)[n+]1ccccc1
inactive: [7] 104 % of control | [8] 105 % of control | [9] 108 % of control

COC(=O)C1=C(C)NC(c2ccc(OC)cc2OC)C(C(=O)OC)=C1C (stereo not given)
inactive: [10] 105 % of control | dose: 120.0 mg/kg/injection, schedule: Q01DX005 (ip), vehicle: saline with Tween-80 102 % of control | dose: 240.0 mg/kg/injection, schedule: Q01DX005 (ip), vehicle: saline with Tween-80 97 % of control

O=C(Nc1ccc(Cl)cc1)OC1CCS(=O)(=O)C1 (stereo not given)
inactive: [8] 100 % of control | [9] 89 % of control

O=S1(=O)C=C(c2cccs2)C1
inactive: dose: 25.0 mg/kg/injection, schedule: Q04DX003 (ip), vehicle: saline with Tween-80 97 % of control | dose: 50.0 mg/kg/injection, schedule: Q04DX003 (ip), vehicle: saline with Tween-80 109 % of control | [11] 105 % of control and 112 % of control

Cc1ccc(S(=O)(=O)/N=C\[N-][n+]2ccccc2C)cc1
inactive: [7] 101 % of control | [8] 93 % of control | [9] 92 % of control

CCOC(=O)Cc1ccc(-c2csc(Nc3ccc(Cl)cc3)n2)cc1
inactive: dose: 100.0 mg/kg/injection, schedule: Q04DX003 (ip), vehicle: Klucel (hydroxypropylcellulose) (HPC) 96 % of control | dose: 200.0 mg/kg/injection, schedule: Q04DX003 (ip), vehicle: Klucel (hydroxypropylcellulose) (HPC) 104 % of control | dose: 400.0 mg/kg/injection, schedule: Q04DX003 (ip), vehicle: Klucel (hydroxypropylcellulose) (HPC) 106 % of control

O=[Se]([O][Sn]([O][Se](=O)c1ccccc1)([O][Se](=O)c1ccccc1)[c]1ccccc1)c1ccccc1 (stereo not given)
inactive: dose: 25.0 mg/kg/injection, schedule: Q01DX009 (ip), vehicle: saline with Tween-80 104 % of control and 96 % of control | [12] 100 % of control and 103 % of control and 118 % of control | [6] 111 % of control and 121 % of control and 96 % of control

Cc1cc(Cl)c(C)cc1Cl
inactive: [12] 91 % of control | [6] 95 % of control | [11] 105 % of control | [13] 95 % of control | dose: 200.0 mg/kg/injection, schedule: Q04DX003 (ip), vehicle: saline with Tween-80 110 % of control | dose: 400.0 mg/kg/injection, schedule: Q04DX003 (ip), vehicle: saline with Tween-80 110 % of control

C#CC(CC)OC(=O)c1ccc([N+](=O)[O-])cc1 (stereo not given)
inactive: [7] 103 % of control | [8] 103 % of control | [9] 91 % of control

O=C(NNC(=O)c1ccccc1O)Nc1ccc(Cl)cc1C(F)(F)F
inactive: [12] 103 % of control | [6] 106 % of control | [13] 100 % of control

NC(=S)c1ccc(C2Nc3cccnc3N2)cc1 (stereo not given)
inactive: [12] 93 % of control | [6] 95 % of control | [13] 90 % of control

COc1ccc(CC(=O)c2ccc(OC)cc2O)cc1
inactive: dose: 100.0 mg/kg/injection, schedule: Q01DX001 (ip), vehicle: saline with Tween-80 103 % of control | dose: 200.0 mg/kg/injection, schedule: Q01DX001 (ip), vehicle: saline with Tween-80 104 % of control | dose: 400.0 mg/kg/injection, schedule: Q01DX001 (ip), vehicle: saline with Tween-80 101 % of control

CCOc1ccc(Nc2ccc(/C(=C3\C=CC(=[N+](CC)Cc4cccc(S(=O)(=O)O)c4)C=C3C)c3ccc(N(CC)Cc4cccc(S(=O)(=O)O)c4)cc3C)cc2)cc1
inactive: [12] 98 % of control | [6] 97 % of control

CCC[CH2][Sn]([Cl])([CH2]CCC)[S]/C(C#N)=N/N=C/c1ccc(N(C)C)cc1
inactive: dose: 15.0 mg/kg/injection, schedule: Q01DX005 (ip), vehicle: saline with Tween-80 106 % of control | [10] 122 % of control

CCOC(=O)CC1(O)CS/C(=C(\C#N)C(=O)OCC)N1c1ccccc1 (stereo not given)
inactive: [3] 96 % of control | [4] 100 % of control | [5] 96 % of control

OC1COC2C(O)COC12 (stereo not given)
inactive: [1] 102 % of control | [2] 90 % of control

CC1=CC(OCc2ccccc2)OC1=O (stereo not given)
inactive: dose: 100.0 mg/kg/injection, schedule: Q04DX002 (ip), vehicle: Klucel (hydroxypropylcellulose) (HPC) 101 % of control | dose: 200.0 mg/kg/injection, schedule: Q04DX002 (ip), vehicle: Klucel (hydroxypropylcellulose) (HPC) 102 % of control | dose: 400.0 mg/kg/injection, schedule: Q04DX002 (ip), vehicle: Klucel (hydroxypropylcellulose) (HPC) 104 % of control

O=C(Nc1n[nH]c(NC(=O)c2ccc([N+](=O)[O-])cc2)n1)c1ccc([N+](=O)[O-])cc1
inactive: dose: 50.0 mg/kg/injection, schedule: Q01DX005 (ip), vehicle: Klucel (hydroxypropylcellulose) (HPC) 93 % of control | dose: 100.0 mg/kg/injection, schedule: Q01DX005 (ip), vehicle: Klucel (hydroxypropylcellulose) (HPC) 90 % of control | dose: 200.0 mg/kg/injection, schedule: Q01DX005 (ip), vehicle: Klucel (hydroxypropylcellulose) (HPC) 90 % of control

Cc1ccc(N2OC3(CCCCC3)n3c(=O)c4ccccc4c(=O)n3C2c2ccccc2)cc1 (stereo not given)
inactive: [7] 105 % of control | [8] 106 % of control | [9] 99 % of control
